Results from US8106197B2, “Aminoheteroaryl compounds as protein kinase inhibitors” (Pfizer Inc., priority 2003, dated 2012).
Like-named read-outs stand apart in the source and are kept apart here.

Molecular target: T1, HGFR (Homo sapiens, UniProt P08581)
T1 construct: purchased Upstate 14-526
Test: HGFR continuous-coupled spectrophotometric assay
Assay type: biochemical
Settings: for I(%): Table 3, Ki(μM) or I(%), test concentration not given; for inhibition at 1 µM: Table 6, percent c-MET inhibition at 1 μM, read-out: % inhibition

[1] = Table 5, percent c-MET inhibition at 50 nM

T1 sequence (P08581 974-1390 limits assumed): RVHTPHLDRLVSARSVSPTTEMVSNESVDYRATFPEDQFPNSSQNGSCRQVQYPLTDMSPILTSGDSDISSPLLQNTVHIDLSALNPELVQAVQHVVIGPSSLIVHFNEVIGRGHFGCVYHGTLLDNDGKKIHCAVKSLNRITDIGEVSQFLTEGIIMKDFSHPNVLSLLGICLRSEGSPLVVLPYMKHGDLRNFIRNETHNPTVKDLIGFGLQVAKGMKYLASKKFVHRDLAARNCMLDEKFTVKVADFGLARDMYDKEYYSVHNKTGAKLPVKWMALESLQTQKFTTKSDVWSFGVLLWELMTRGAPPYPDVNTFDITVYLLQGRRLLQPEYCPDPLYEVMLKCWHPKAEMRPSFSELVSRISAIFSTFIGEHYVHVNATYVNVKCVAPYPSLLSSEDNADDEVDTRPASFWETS

| SMILES | % inhibition | inhibition at 1 µM [%] | further results |
| --- | --- | --- | --- |
| CC1CN(C(=O)c2ccc(-c3cnc(N)c(OCc4c(Cl)cccc4Cl)c3)cc2)CC(C)N1 (stereo not drawn) [Example I-634, {4-[6-Amino-5-(2,6-dichloro-benzyloxy)-pyridin-3-yl]-phenyl}-(3,5-dimethyl-piperazin-1-yl)-methanone] | – | – | I(%): 10% |
| CCN(CC)C(=O)C1CCCN(C(=O)c2cnc(N)c(OCc3c(Cl)cccc3Cl)c2)C1 (stereo not drawn) | – | 33 | – |
| Nc1ncc(C(=O)N2CCCCC2CCO)cc1OCc1c(Cl)cccc1Cl (stereo not drawn) | – | 33 | – |
| N#CC1(c2ccccc2)CCN(C(=O)c2cnc(N)c(OCc3c(Cl)cccc3Cl)c2)CC1 | – | 37 | – |
| Nc1ncc(C(=O)N2CCC(CO)CC2)cc1OCc1c(Cl)cccc1Cl | – | 43 | – |
| Nc1ncc(C(=O)NCc2ccc(F)cc2Cl)cc1OCc1c(Cl)cccc1Cl | – | 37 | – |
| Nc1ncc(C(=O)NCC(F)(F)F)cc1OCc1c(Cl)cccc1Cl | – | 30 | – |
| CC(Oc1cc(-c2ccc(C(=O)NC(C)C(O)c3ccccc3)cc2)cnc1N)c1c(Cl)ccc(F)c1Cl (stereo not drawn) | – | – | inhibition at 0.05 µM [1]: 69% |
| CCN1CCN(C(=O)c2ccc(-c3cnc(N)c(OCc4ccccc4)c3)cc2)CC1 [Example I-623, [4-(6-Amino-5-benzyloxy-pyridin-3-yl)-phenyl]-(4-ethyl-piperazin-1-yl)-methanone] | – | – | I(%): 7% |
| Nc1ncc(C(=O)NCc2ccccc2OC(F)(F)F)cc1OCc1c(Cl)cccc1Cl | – | 31 | – |
| Cc1ccc(N2CCN(CCCCNC(=O)c3cnc(N)c(OCc4c(Cl)cccc4Cl)c3)CC2)cc1 | – | 15 | – |
| CC(O)CNC(=O)c1cnc(N)c(OCc2c(Cl)cccc2Cl)c1 (stereo not drawn) | – | 49 | – |
| CC(Oc1cc(-c2ccc(C(=O)NC(CO)C(C)C)cc2)cnc1N)c1c(Cl)ccc(F)c1Cl (stereo not drawn) | – | – | inhibition at 0.05 µM [1]: 65% |
| CC(Oc1cc(-c2ccc(C(=O)N[C@H](CO)c3ccccc3)cc2)cnc1N)c1c(Cl)ccc(F)c1Cl (stereo partly drawn) | – | – | inhibition at 0.05 µM [1]: 69% |
| CC(Oc1cc(-c2ccc(C(=O)N[C@H]3CC[C@H](O)CC3)cc2)cnc1N)c1c(Cl)ccc(F)c1Cl (stereo partly drawn) [drawing 1011] | – | – | % inhibition (Table 5, percent c-MET inhibition at 50 nM, 0.05 µM): % inhibition = 72 |
| Nc1ncc(C(=O)N2CCN(CCO)CC2)cc1OCc1c(Cl)cccc1Cl | – | 51 | – |
| Cc1nc[nH]c1CN1CCC2(CC1)CC(NC(=O)c1cnc(N)c(OCc3c(Cl)cccc3Cl)c1)CO2 (stereo not drawn) | – | 30 | – |
| Nc1ncc(C(=O)NCc2ccc(OC(F)(F)F)cc2)cc1OCc1c(Cl)cccc1Cl | – | 24 | – |
| CN(CC#N)C(=O)c1cnc(N)c(OCc2c(Cl)cccc2Cl)c1 | – | 30 | – |
| Nc1ncc(C(=O)NCCc2cccc(O)c2)cc1OCc1c(Cl)cccc1Cl | – | 17 | – |
| CS(=O)(=O)C1CCN(C(=O)c2cnc(N)c(OCc3c(Cl)cccc3Cl)c2)C1 (stereo not drawn) | – | 23 | – |

| SMILES | % inhibition | inhibition at 1 µM [%] | further results |
| --- | --- | --- | --- |
| CC(O)CCNC(=O)c1ccc(-c2cnc(N)c(OC(C)c3c(Cl)ccc(F)c3Cl)c2)cc1 (stereo not drawn) | – | – | inhibition at 0.05 µM [1]: 77% |
| Nc1ncc(C(=O)N2CCC3(CC2)CC3C(=O)N2CCCCC2)cc1OCc1c(Cl)cccc1Cl (stereo not drawn) | – | 26 | – |
| Cc1ccc2c(c1)C(NC(=O)c1cnc(N)c(OCc3c(Cl)cccc3Cl)c1)CCO2 (stereo not drawn) | – | 17 | – |
| Nc1ncc(C(=O)N2CCC3(CC2)COC(CCc2cc(O)n[nH]2)C3)cc1OCc1c(Cl)cccc1Cl (stereo not drawn) | – | 34 | – |
| CC(Oc1cc(-c2ccc(C(=O)NC[C@@H]3CCCC[C@H]3O)cc2)cnc1N)c1c(Cl)ccc(F)c1Cl (stereo partly drawn) | – | – | inhibition at 0.05 µM [1]: 67% |
| CS(=O)(=O)CCN1CCN(C(=O)c2cnc(N)c(OCc3c(Cl)cccc3Cl)c2)CC1 | – | 25 | – |
| COC(=O)c1cccc(COc2cc(-c3ccc(C(=O)N4CC(C)NC(C)C4)cc3)cnc2N)c1 (stereo not drawn) [Example I-626, 3-{2-Amino-5-[4-(3,5-dimethyl-piperazine-1-carbonyl)-phenyl]-pyridin-3-yloxymethyl}-benzoic acid methyl ester] | – | – | I(%): 0% |
| CC(C)NC(=O)CN1CCN(C(=O)c2cnc(N)c(OCc3c(Cl)cccc3Cl)c2)CC1 | – | 30 | – |
| CC(Oc1cc(CNC2CCN(Cc3ccccc3)C2)cnc1N)c1c(Cl)ccc(F)c1Cl (stereo not drawn) [Example I-608, 5-[(1-Benzyl-pyrrolidin-3-ylamino)-methyl]-3-[1-(2,6-dichloro-3-fluoro-phenyl)-ethoxy]-pyridin-2-ylamine] | – | – | I(%): 0% |
| CC(C)(O)c1ccc(CNC(=O)c2cnc(N)c(OCc3c(Cl)cccc3Cl)c2)cc1 | – | 24 | – |
| Nc1ncc(C(=O)NCCCN2CCOCC2)cc1OCc1c(Cl)cccc1Cl | – | 26 | – |
| CC(NC(=O)c1ccc(-c2cnc(N)c(OC(C)c3c(Cl)ccc(F)c3Cl)c2)cc1)c1ccc(F)cc1 (stereo not drawn) | – | – | inhibition at 0.05 µM [1]: 56% |
| Nc1ncc(C(=O)N2CCN(c3ccc(Br)cn3)CC2)cc1OCc1c(Cl)cccc1Cl | – | 5 | – |
| COc1ccc(CNC(=O)c2cnc(N)c(OCc3c(Cl)cccc3Cl)c2)c(OC)c1 | – | 59 | – |
| CC1CCCN(C(=O)c2ccc(-c3cnc(N)c(OC(C)c4c(Cl)ccc(F)c4Cl)c3)cc2)C1 (stereo not drawn) | – | – | inhibition at 0.05 µM [1]: 65% |
| CCCN(CCO)C1CCCN(C(=O)c2cnc(N)c(OCc3c(Cl)cccc3Cl)c2)CC1 (stereo not drawn) | – | 17 | – |
| COc1ccccc1CC(C)N(C)C(=O)c1ccc(-c2cnc(N)c(OC(C)c3c(Cl)ccc(F)c3Cl)c2)cc1 (stereo not drawn) | – | – | inhibition at 0.05 µM [1]: 55% |
| Nc1ncc(C(=O)NCC2COc3ccccc3O2)cc1OCc1c(Cl)cccc1Cl (stereo not drawn) | – | 34 | – |
| CC(CCCC(C)(C)O)NC(=O)c1cnc(N)c(OCc2c(Cl)cccc2Cl)c1 (stereo not drawn) | – | 35 | – |
| Nc1ncc(C(=O)N2CCN(CCCO)CC2)cc1OCc1c(Cl)cccc1Cl | – | 31 | – |

Now from value to compound, other results behind:

| % inhibition | inhibition at 1 µM [%] | SMILES | further results |
| --- | --- | --- | --- |
| % inhibition = 45 | – | Nc1ncc(-c2ccc(C(=O)N3CCC(N4CCCC4)CC3)cc2)cc1OCc1cc(Br)cc(Br)c1 | – |
| % inhibition = 10 | – | Cn1c(COc2cc(-c3ccc(C(=O)N4CCC(N5CCCC5)CC4)cc3)cnc2N)nc2ccccc21 | – |
| % inhibition = 14 | – | Nc1ncc(-c2ccc(C(=O)N3CCC(N4CCCC4)CC3)cc2)cc1OCc1cc(-c2c(Cl)cccc2Cl)no1 | – |
| % inhibition = 15 | – | Nc1ncc(-c2ccc(C(=O)N3CCC(N4CCCC4)CC3)cc2)cc1OCc1cccc(CO)n1 | – |
| % inhibition = 64 | – | Nc1ncc(-c2ccc(C(=O)N3CCC(N4CCCC4)CC3)cc2)cc1OCc1nc(-c2cccc(C(=O)Nc3ccc(F)cc3)c2)no1 | – |
| – | 10 | Nc1ncc(C(=O)N2CCC(COCc3ccccc3F)CC2)cc1OCc1c(Cl)cccc1Cl | – |
| % inhibition = 17 | – | Cc1cccc(COc2cc(-c3ccc(C(=O)N4CCC(N5CCCC5)CC4)cc3)cnc2N)n1 | – |
| % inhibition = 11 | – | CS(=O)(=O)c1ccc(COc2cc(-c3ccc(C(=O)N4CCC(N5CCCC5)CC4)cc3)cnc2N)cc1 | – |
| % inhibition = 19 | – | Nc1ncc(-c2ccc(C(=O)N3CCC(N4CCCC4)CC3)cc2)cc1OCc1ccc(F)c(F)c1F | – |
| % inhibition = 13 | – | Nc1ncc(-c2ccc(C(=O)N3CCC(N4CCCC4)CC3)cc2)cc1OCc1ccc(S(=O)(=O)c2ccc(F)cc2)cc1 | – |
| % inhibition = 11 | – | CNC(=O)c1ccc(OC)c(-c2noc(OCc3cc(-c4ccc(C(=O)N5CCC(N6CCCC6)CC5)cc4)cnc3N)n2)c1 | – |
| % inhibition = 12 | – | Nc1ncc(-c2ccc(C(=O)N3CCC(N4CCCC4)CC3)cc2)cc1OCc1ccc(C(=O)N2CCN(Cc3ccccc3)CC2)cc1 | – |
| % inhibition = 5 | – | Nc1ncc(-c2ccc(C(=O)N3CCC(N4CCCC4)CC3)cc2)cc1OCc1nsc(Cl)n1 | – |
| % inhibition = 9 | – | CCc1ccn2cc(COc3cc(-c4ccc(C(=O)N5CCC(N6CCCC6)CC5)cc4)cnc3N)nc2c1 | – |
| % inhibition = 9 | – | N#Cc1nc(COc2cc(-c3ccc(C(=O)N4CCC(N5CCCC5)CC4)cc3)cnc2N)cnc1N | – |
| % inhibition = 28 | – | Nc1ncc(-c2ccc(C(=O)N3CCC(N4CCCC4)CC3)cc2)cc1OCc1ccc(Cl)cc1Br | – |
| % inhibition = 14 | – | Cn1ccnc1COc1cc(-c2ccc(C(=O)N3CCC(N4CCCC4)CC3)cc2)cnc1N | – |

| % inhibition | inhibition at 1 µM [%] | SMILES | further results |
| --- | --- | --- | --- |
| % inhibition = 19 | – | COc1ccccc1-c1nc(COc2cc(-c3ccc(C(=O)N4CCC(N5CCCC5)CC4)cc3)cnc2N)c(C)o1 | – |
| % inhibition = 17 | – | Nc1ncc(-c2ccc(C(=O)N3CCC(N4CCCC4)CC3)cc2)cc1OCc1nc2ccccc2s1 | – |
| % inhibition = 11 | – | Nc1ncc(-c2ccc(C(=O)N3CCC(N4CCCC4)CC3)cc2)cc1OCc1ccc(C(=O)NC2CCN(Cc3ccccc3)CC2)cc1 | – |
| % inhibition = 10 | – | Nc1ncc(-c2ccc(C(=O)N3CCC(N4CCCC4)CC3)cc2)cc1OCc1nnsc1Cl | – |
| % inhibition = 16 | – | Nc1ncc(-c2ccc(C(=O)N3CCC(N4CCCC4)CC3)cc2)cc1OCc1ccccn1 | – |
| % inhibition = 13 | – | Nc1ncc(-c2ccc(C(=O)N3CCC(N4CCCC4)CC3)cc2)cc1OCc1cccc(C(=O)NC2CCN(Cc3ccccc3)C2)c1 (stereo not drawn) | – |
| – | 18 | Nc1ncc(C(=O)N2CCCC(N3CCOCC3)CC2)cc1OCc1c(Cl)cccc1Cl (stereo not drawn) | – |
| % inhibition = 18 | – | Cc1ccn2cc(COc3cc(-c4ccc(C(=O)N5CCC(N6CCCC6)CC5)cc4)cnc3N)nc2c1 | – |
| % inhibition = 14 | – | Nc1ncc(-c2ccc(C(=O)N3CCC(N4CCCC4)CC3)cc2)cc1OCc1cccc(C(=O)NCc2cccnc2)c1 | – |
| – | 32 | Nc1ncc(C(=O)N2CCC(C(=O)c3ccccc3)CC2)cc1OCc1c(Cl)cccc1Cl | – |
| – | 34 | Nc1ncc(C(=O)N2CCN(c3ccccn3)CC2)cc1OCc1c(Cl)cccc1Cl | – |
| % inhibition = 9 | – | CC(=O)N(c1ccc(C)cc1)c1nc(COc2cc(-c3ccc(C(=O)N4CCC(N5CCCC5)CC4)cc3)cnc2N)cs1 | – |
| % inhibition = 32 | – | CC(C)c1ccc(COc2cc(-c3ccc(C(=O)N4CCC(N5CCCC5)CC4)cc3)cnc2N)cc1 | – |
| % inhibition = 11 | – | Nc1ncc(-c2ccc(C(=O)N3CCC(N4CCCC4)CC3)cc2)cc1OCc1ccc(C(=O)NCCc2ccccn2)cc1 | – |
| % inhibition = 13 | – | Nc1ncc(-c2ccc(C(=O)N3CCC(N4CCCC4)CC3)cc2)cc1OCc1cccc(-c2ccnc(Br)n2)c1 | – |
| % inhibition = 24 | – | Nc1ncc(-c2ccc(C(=O)N3CCC(N4CCCC4)CC3)cc2)cc1OCc1ccc(C(F)(F)F)c(F)c1 | – |
| % inhibition = 34 | – | Nc1ncc(-c2ccc(C(=O)N3CCC(N4CCCC4)CC3)cc2)cc1OCc1cccc(Oc2ccccc2)c1 | – |
